Several values for one entry are separate records, joined by “and”; a condition that tells them apart may be missing. Equal values may be shown once. Activity calls are given as the source filed them.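 The calls were made as follows: active = over 50% block of the Kir2.1 potassium channel by compound at 30 µM; inactive = the rest.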
Biological target: Inward rectifier potassium channel 2 (Mus musculus) (UniProt P35561)
Test: Kir2.1 potassium channel inhibitors, dose response, cell-based, HEK293, thallium flux, FluxOR fluorescence (AID 624350)
Conditions: HEK293 Kir2.1, FluxOR thallium flux fluorescence, 20 min

Sequence of Inward rectifier potassium channel 2 (Mus musculus) (P35561 whole entry, looked up): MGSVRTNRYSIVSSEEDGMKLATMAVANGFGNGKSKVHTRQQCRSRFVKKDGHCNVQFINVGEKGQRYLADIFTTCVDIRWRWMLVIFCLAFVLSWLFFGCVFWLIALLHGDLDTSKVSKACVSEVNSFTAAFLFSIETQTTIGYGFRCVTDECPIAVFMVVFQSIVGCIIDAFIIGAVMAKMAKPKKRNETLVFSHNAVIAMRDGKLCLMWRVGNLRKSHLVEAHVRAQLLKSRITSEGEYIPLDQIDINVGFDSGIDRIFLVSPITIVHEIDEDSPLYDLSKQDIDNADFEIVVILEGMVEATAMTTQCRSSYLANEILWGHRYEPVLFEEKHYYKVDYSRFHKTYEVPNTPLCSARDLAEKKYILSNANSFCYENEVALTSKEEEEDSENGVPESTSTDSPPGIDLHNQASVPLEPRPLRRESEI

outcome | IC50 | Structure (SMILES)
inactive | – | O=S(=O)(NCc1cccnc1)c1ccc(Br)cc1
inactive | – | Cc1ccc(C)c(OCCCOCc2ccccc2)c1
– | 7.81 µM | COc1ccccc1CCNS(=O)(=O)c1ccc(Br)cc1
inactive | – | COCc1nc2ccccc2n1CC(C)C
– | 13.4 µM | Cc1ccc(C)c(OCCCNCc2ccc(Cl)c(Cl)c2)c1
– | 28.4 µM | CC(C)Cn1c(Cc2ccccc2)nc2ccccc21
– | 23 µM | CCN(Cc1ccncc1)S(=O)(=O)c1ccc(Br)cc1
inactive | – | Cc1ccc(C)c(OCCCNC[C@H](C)O)c1
– | inactive | Cc1ccc(C)c(OCCCNC[C@@H](C)O)c1
– | 13.4 µM | O=S(=O)(NCCc1c[nH]c2ccccc12)c1ccc(Br)cc1
inactive | – | COCc1nc2ccccc2n1Cc1ccccc1
inactive | – | Cc1ccc(C)c(OCCCN2CCCCC2)c1
inactive | – | O=S(=O)(NCc1ccccn1)c1ccc(Br)cc1
– | 11.9 µM | O=S(=O)(c1ccc(F)cc1)N1CCCc2ccccc21
inactive | – | Cc1ccc(C)c(OCCCN(C)CCO)c1
inactive | – | Cc1ccc(C)c(OCCCNCCO)c1
– | 17.9 µM | O=S(=O)(c1ccc(Br)cc1)N1CCc2ccccc21
inactive | – | O=S(=O)(c1ccc(Br)cc1)N1CCCCC1
– | inactive | Cc1ccc(C)c(OCCCNCc2ccco2)c1
– | 11.9 µM | Cc1ccc(C)c(OCCCN(C)Cc2ccccc2)c1
– | 15.8 µM and 13.4 µM | O=S(=O)(c1ccc(Br)cc1)N1CCCc2ccccc21

outcome | IC50 | Structure (SMILES)
inactive | – | COCc1nc2ccccc2n1C1CC1
– | 12.6 µM | O=S(=O)(c1cccc(Br)c1)N1CCCc2ccccc21
inactive | – | C[C@H](NC(=O)c1ccc(Br)cc1)c1ccccc1
inactive | – | O=S(=O)(N[C@H]1c2ccccc2C[C@H]1O)c1ccc(Br)cc1
– | 9.46 µM | C[C@@H](NS(=O)(=O)c1ccc(Br)cc1)c1cccc2ccccc12
– | 16.3 µM | O=S(=O)(NCc1ccc(F)cc1F)c1ccc(Br)cc1
inactive | – | O=S(=O)(c1ccc(Br)cc1)N1CCN(c2ccc(Cl)c(Cl)c2)CC1
– | 11.3 µM | O=S(=O)(NCc1ccc(F)c(F)c1)c1ccc(Br)cc1
– | 10 µM | O=S(=O)(c1ccccc1Br)N1CCCc2ccccc21
– | 15 µM | c1ccc(Cc2nc3ccccc3n2-c2ccccc2)cc1
inactive | – | O=S(=O)(NCc1cccc(F)c1)c1ccc(Br)cc1
– | 15.6 µM | O=S(=O)(NCc1cc(F)cc(F)c1)c1ccc(Br)cc1
inactive | – | O=S(=O)(NCc1ccco1)c1ccc(Br)cc1
inactive | – | Cc1ccc(C)c(OCCCN2CCOCC2)c1
inactive | – | C[C@@H](NC(=O)c1ccc(Br)cc1)c1ccccc1
– | 11.2 µM | Cc1ccc(C)c(OCCCNCc2cccc3ccccc23)c1
inactive | – | Cc1ccc(C)c(OCCCNc2ccccc2)c1
inactive | – | O=C(c1ccc(F)cc1)N1CCCc2ccccc21
– | 12.6 µM | O=S(=O)(c1cccc(F)c1)N1CCCc2ccccc21
inactive | – | C[C@@H](c1ccccc1)N(Cc1ccccc1)S(=O)(=O)c1ccc(Br)cc1
– | 18.9 µM | Cc1ccc(C)c(OCCCNCC2CCCCC2)c1

outcome | IC50 | Structure (SMILES)
inactive | – | O=S(=O)(NCc1ccncc1)c1ccc(Br)cc1
– | 28.4 µM | O=S(=O)(NC1Cc2ccccc2C1)c1ccc(Br)cc1
inactive | – | CCN(CC)CCCOc1cc(C)ccc1C
inactive | – | O=S(=O)(NCC(c1ccccc1)c1ccccc1)c1ccc(Br)cc1
inactive | – | O=S(=O)(NCc1ccccc1)c1ccc(Br)cc1
– | 17.8 µM | O=[N+]([O-])c1ccc(CNS(=O)(=O)c2ccc(Br)cc2)cc1
inactive | – | O=S(=O)(NCc1cccc2ccccc12)c1ccc(Br)cc1
inactive | – | COCc1nc2ccccc2n1-c1ccccc1
inactive | – | COCc1nc2ccccc2n1CCN1CCOCC1
– | 11.2 µM | O=S(=O)(c1ccccc1F)N1CCCc2ccccc21
– | 8.91 µM | Cc1ccc(C)c(OCCCNCc2ccccc2)c1
inactive | – | COc1ccc(N2CCN(S(=O)(=O)c3ccc(Br)cc3)CC2)cc1
inactive | – | O=S(=O)(c1ccc(Br)cc1)N1CCC(c2ccccc2)CC1
inactive | – | c1ccc(Cc2nc3ccccc3n2C2CC2)cc1
inactive | – | CN(Cc1ccccc1)S(=O)(=O)c1ccc(Br)cc1
– | 29.9 µM | c1ccc(Cc2nc3ccccc3n2Cc2ccccc2)cc1
– | 10.6 µM | Cc1ccc(C)c(OCCCNCCc2ccccc2)c1
inactive | – | O=S(=O)(NCCc1ccccc1)c1ccc(Br)cc1
inactive | – | CN1CCN(S(=O)(=O)c2ccc(Br)cc2)CC1
inactive | – | COc1ccc(CCNS(=O)(=O)c2ccc(Br)cc2)cc1OC
